In patent publication US20250163104A1, “MACROCYCLIC IMMUNOMODULATORS” (priority 2021, published 2025):
Where a SMILES comes first, the peptide text is derived from it. Bridges are numbered along the chain shown (N, C = ends). [ ]: non-standard residue; d: D form. The star is where a group is joined. Phe(4-CONH2) = NC(=O)c1ccc(C[C@H](N)C(=O)O)cc1; Asp(3,3-Me2) = CC(C)(C(=O)O)[C@H](N)C(=O)O; Bip = N[C@@H](Cc1ccc(-c2ccccc2)cc1)C(=O)O; Phe(3-Me) = Cc1cccc(C[C@H](N)C(=O)O)c1; Val(3-OH) = CC(C)(O)[C@H](N)C(=O)O; 4Pal = N[C@@H](Cc1ccncc1)C(=O)O; 2Thi = N[C@@H](Cc1cccs1)C(=O)O; Cha = N[C@@H](CC1CCCCC1)C(=O)O; Carboxymethyl = O=C(O)C*; Orn = NCCC[C@H](N)C(=O)O; Dab = NCC[C@H](N)C(=O)O; Dap = NC[C@H](N)C(=O)O; Ac3c = NC1(C(=O)O)CC1; Piv = CC(C)(C)C(=O)*

target: T1, human PD-1 / PD-L1-Ig binding on Jurkat cell line over-expressing human PD-1 (Jurkat-PD-1) (Homo sapiens, UniProt Q15116); test: Jurkat-PD-1 Cell Binding High-Content Screening Assay (CBA); assay type: cell-based; details: Jurkat-PD-1 cells, PE-labeled PD-L1-Ig 20 nM final; read-out: Jurkat HPD1_PDL1 IC50
T1 construct: expressed in transfected cells; host or cells: Jurkat
T1 sequence (Q15116 25-288): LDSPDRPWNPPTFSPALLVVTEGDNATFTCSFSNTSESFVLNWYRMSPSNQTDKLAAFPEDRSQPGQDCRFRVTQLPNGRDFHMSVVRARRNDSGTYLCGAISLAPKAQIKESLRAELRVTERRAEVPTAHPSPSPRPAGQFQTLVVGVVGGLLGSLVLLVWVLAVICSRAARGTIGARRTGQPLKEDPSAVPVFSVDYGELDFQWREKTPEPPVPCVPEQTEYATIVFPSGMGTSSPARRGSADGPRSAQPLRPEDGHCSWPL
Method in brief: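 Cell-bound PE-labeled PD-L1-Ig (20 nM final, 1 h) measured by high-content imaging after fixation and Hoechst 33342 counterstain. Compound was applied first for 2 h at 37° C. to Jurkat cells over-expressing human PD-1 in DMEM with 10% FCS.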

| IC50 | Compound |
| --- | --- |
| 0.0193 µM | Cc1cccc(C[C@@H]2NC(=O)[C@H](CC(=O)O)NC(=O)[C@H](Cc3ccc(OCC(=O)O)cc3)NC(=O)[C@H](Cc3ccncc3)NC(=O)CSC[C@@H](C(=O)N[C@@H](CCNC(=O)C(C)(C)C)C(N)=O)NC(=O)[C@H]([C@@H](C)O)NC(=O)[C@H](C(C)C)NC(=O)[C@H](CC3CCCCC3)NC(=O)[C@H](CCN)NC(=O)[C@@H](CC(C)C)NC(=O)[C@H](CCN)NC(=O)[C@H](Cc3ccc(OCC(=O)O)cc3)NC(=O)[C@H](Cc3ccc(-c4ccccc4)cc3)NC(=O)[C@H](Cc3ccc(OCC(=O)O)cc3)NC2=O)c1 [Compound 2060] ({CH2CO}-[4Pal]Y(Carboxymethyl)D[Phe(3-Me)]Y(Carboxymethyl)[Bip]Y(Carboxymethyl)[Dab][dL][Dab][Cha]VTC[Dab](Piv)-NH2; thioether N-14) |
| 0.0128 µM | Cc1cccc(C[C@@H]2NC(=O)[C@H](CC(=O)O)NC(=O)[C@H](Cc3ccc(OCC(=O)O)cc3)NC(=O)[C@H](Cc3ccncc3)NC(=O)CSC[C@@H](C(=O)N[C@@H](CCN)C(N)=O)NC(=O)[C@H]([C@@H](C)O)NC(=O)[C@H](C(C)C)NC(=O)[C@H](CC3CCCCC3)NC(=O)[C@H](CCNC(=O)C(C)(C)C)NC(=O)[C@@H](CC(C)C)NC(=O)[C@H](CCN)NC(=O)[C@H](Cc3ccc(OCC(=O)O)cc3)NC(=O)[C@H](Cc3ccc(-c4ccccc4)cc3)NC(=O)[C@H](Cc3ccc(OCC(=O)O)cc3)NC2=O)c1 [Compound 2062] ({CH2CO}-[4Pal]Y(Carboxymethyl)D[Phe(3-Me)]Y(Carboxymethyl)[Bip]Y(Carboxymethyl)[Dab][dL][Dab](Piv)[Cha]VTC[Dab]-NH2; thioether N-14) |
| 0.0117 µM | Cc1cccc(C[C@@H]2NC(=O)[C@H](CC(=O)O)NC(=O)[C@H](Cc3ccc(OCC(=O)O)cc3)NC(=O)[C@H](Cc3ccncc3)NC(=O)CSC[C@@H](C(=O)NC3(C(N)=O)CC3)NC(=O)[C@H](CO)NC(=O)[C@H](C(C)C)NC(=O)[C@H](CC3CCCCC3)NC(=O)[C@H](CCN)NC(=O)[C@@H](CC(C)C)NC(=O)[C@H](CCCN)NC(=O)[C@H](Cc3ccc(OCC(=O)O)cc3)NC(=O)[C@H](Cc3ccc(-c4ccccc4)cc3)NC(=O)[C@H](Cc3ccc(OCC(=O)O)cc3)NC2=O)c1 [Compound 2064] ({CH2CO}-[4Pal]Y(Carboxymethyl)D[Phe(3-Me)]Y(Carboxymethyl)[Bip]Y(Carboxymethyl)[Orn][dL][Dab][Cha]VSC[Ac3c]-NH2; thioether N-14) |
| 0.0195 µM | Cc1cccc(C[C@@H]2NC(=O)[C@H](CC(=O)O)NC(=O)[C@H](Cc3ccc(OCC(=O)O)cc3)NC(=O)[C@H]([C@@H](C)O)NC(=O)CSC[C@@H](C(=O)NC3(C(N)=O)CC3)NC(=O)[C@H](CO)NC(=O)[C@H](C(C)C)NC(=O)[C@H](CC3CCCCC3)NC(=O)[C@H](CCN)NC(=O)[C@@H](CC(C)C)NC(=O)[C@H](CCCN)NC(=O)[C@H](Cc3ccc(OCC(=O)O)cc3)NC(=O)[C@H](Cc3ccc(-c4ccccc4)cc3)NC(=O)[C@H](Cc3ccc(OCC(=O)O)cc3)NC2=O)c1 [Compound 2065] ({CH2CO}-TY(Carboxymethyl)D[Phe(3-Me)]Y(Carboxymethyl)[Bip]Y(Carboxymethyl)[Orn][dL][Dab][Cha]VSC[Ac3c]-NH2; thioether N-14) |
| 0.0061 µM | Cc1cccc(C[C@@H]2NC(=O)[C@H](CC(=O)O)NC(=O)[C@H](Cc3ccc(OCC(=O)O)cc3)NC(=O)[C@H](Cc3ccncc3)NC(=O)CSC[C@@H](C(=O)N[C@@H](CCN)C(N)=O)NC(=O)[C@H]([C@@H](C)O)NC(=O)[C@H](C(C)(C)O)NC(=O)[C@H](CC3CCCCC3)NC(=O)[C@H](CCN)NC(=O)[C@@H](CC(C)C)NC(=O)[C@H](CCCN)NC(=O)[C@H](Cc3ccc(OCC(=O)O)cc3)NC(=O)[C@H](Cc3ccc(-c4ccccc4)cc3)NC(=O)[C@H](Cc3ccc(OCC(=O)O)cc3)NC2=O)c1 [Compound 2066] ({CH2CO}-[4Pal]Y(Carboxymethyl)D[Phe(3-Me)]Y(Carboxymethyl)[Bip]Y(Carboxymethyl)[Orn][dL][Dab][Cha][Val(3-OH)]TC[Dab]-NH2; thioether N-14) |
| 0.0082 µM | Cc1cccc(C[C@@H]2NC(=O)[C@H](CC(=O)O)NC(=O)[C@H](Cc3ccc(OCC(=O)O)cc3)NC(=O)[C@H](Cc3ccncc3)NC(=O)CSC[C@@H](C(=O)N[C@@H](CCN)C(N)=O)NC(=O)[C@H](CCC(N)=O)NC(=O)[C@H](C(C)(C)O)NC(=O)[C@H](CC3CCCCC3)NC(=O)[C@H](CCN)NC(=O)[C@@H](CC(C)C)NC(=O)[C@H](CCCN)NC(=O)[C@H](Cc3ccc(OCC(=O)O)cc3)NC(=O)[C@H](Cc3ccc(-c4ccccc4)cc3)NC(=O)[C@H](Cc3ccc(OCC(=O)O)cc3)NC2=O)c1 [Compound 2068] ({CH2CO}-[4Pal]Y(Carboxymethyl)D[Phe(3-Me)]Y(Carboxymethyl)[Bip]Y(Carboxymethyl)[Orn][dL][Dab][Cha][Val(3-OH)]QC[Dab]-NH2; thioether N-14) |

Second part, the molecule before the results:

| Compound | IC50 |
| --- | --- |
| Cc1cccc(C[C@@H]2NC(=O)[C@H](CC(=O)O)NC(=O)[C@H](Cc3ccc(OCC(=O)O)cc3)NC(=O)[C@H](CN)NC(=O)CSC[C@@H](C(=O)N[C@@H](CCNC(=O)C(C)(C)C)C(N)=O)NC(=O)[C@H]([C@@H](C)O)NC(=O)[C@H](C(C)C)NC(=O)[C@H](CC3CCCCC3)NC(=O)[C@H](CCN)NC(=O)[C@@H](CC(C)C)NC(=O)[C@H](CCN)NC(=O)[C@H](Cc3ccc(OCC(=O)O)cc3)NC(=O)[C@H](Cc3ccc(-c4ccccc4)cc3)NC(=O)[C@H](Cc3ccc(OCC(=O)O)cc3)NC2=O)c1 [Compound 2061] ({CH2CO}-[Dap]Y(Carboxymethyl)D[Phe(3-Me)]Y(Carboxymethyl)[Bip]Y(Carboxymethyl)[Dab][dL][Dab][Cha]VTC[Dab](Piv)-NH2; thioether N-14) | 0.0236 µM |
| Cc1cccc(C[C@@H]2NC(=O)[C@H](CC(=O)O)NC(=O)[C@H](Cc3ccc(OCC(=O)O)cc3)NC(=O)[C@H](CN)NC(=O)CSC[C@@H](C(=O)N[C@@H](CCN)C(N)=O)NC(=O)[C@H]([C@@H](C)O)NC(=O)[C@H](C(C)C)NC(=O)[C@H](CC3CCCCC3)NC(=O)[C@H](CCNC(=O)C(C)(C)C)NC(=O)[C@@H](CC(C)C)NC(=O)[C@H](CCN)NC(=O)[C@H](Cc3ccc(OCC(=O)O)cc3)NC(=O)[C@H](Cc3ccc(-c4ccccc4)cc3)NC(=O)[C@H](Cc3ccc(OCC(=O)O)cc3)NC2=O)c1 [Compound 2063] ({CH2CO}-[Dap]Y(Carboxymethyl)D[Phe(3-Me)]Y(Carboxymethyl)[Bip]Y(Carboxymethyl)[Dab][dL][Dab](Piv)[Cha]VTC[Dab]-NH2; thioether N-14) | 0.0162 µM |
| Cc1cccc(C[C@@H]2NC(=O)[C@H](CC(=O)O)NC(=O)[C@H](Cc3ccc(OCC(=O)O)cc3)NC(=O)[C@H](Cc3cccs3)NC(=O)CSC[C@@H](C(=O)N[C@@H](CCN)C(N)=O)NC(=O)[C@H]([C@@H](C)O)NC(=O)[C@H](C(C)(C)O)NC(=O)[C@H](CC3CCCCC3)NC(=O)[C@H](CCN)NC(=O)[C@@H](CC(C)C)NC(=O)[C@H](CCCN)NC(=O)[C@H](Cc3ccc(OCC(=O)O)cc3)NC(=O)[C@H](Cc3ccc(-c4ccccc4)cc3)NC(=O)[C@H](Cc3ccc(OCC(=O)O)cc3)NC2=O)c1 [Compound 2067] ({CH2CO}-[2Thi]Y(Carboxymethyl)D[Phe(3-Me)]Y(Carboxymethyl)[Bip]Y(Carboxymethyl)[Orn][dL][Dab][Cha][Val(3-OH)]TC[Dab]-NH2; thioether N-14) | 0.0063 µM |
| Cc1cccc(C[C@@H]2NC(=O)[C@H](CC(=O)O)NC(=O)[C@H](Cc3ccc(OCC(=O)O)cc3)NC(=O)[C@H](Cc3ccc(C(N)=O)cc3)NC(=O)CSC[C@@H](C(=O)N[C@@H](CCN)C(N)=O)NC(=O)[C@H](CCC(N)=O)NC(=O)[C@H](C(C)(C)O)NC(=O)[C@H](CC3CCCCC3)NC(=O)[C@H](CCN)NC(=O)[C@@H](CC(C)C)NC(=O)[C@H](CCCN)NC(=O)[C@H](Cc3ccc(OCC(=O)O)cc3)NC(=O)[C@H](Cc3ccc(-c4ccccc4)cc3)NC(=O)[C@H](Cc3ccc(OCC(=O)O)cc3)NC2=O)c1 [Compound 2069] ({CH2CO}-[Phe(4-CONH2)]Y(Carboxymethyl)D[Phe(3-Me)]Y(Carboxymethyl)[Bip]Y(Carboxymethyl)[Orn][dL][Dab][Cha][Val(3-OH)]QC[Dab]-NH2; thioether N-14) | 0.0072 µM |
| Cc1cccc(C[C@@H]2NC(=O)[C@H](CC(=O)O)NC(=O)[C@H](Cc3ccc(OCC(=O)O)cc3)NC(=O)[C@H](CCN)NC(=O)CSC[C@@H](C(=O)N[C@@H](CCN)C(N)=O)NC(=O)[C@H](CO)NC(=O)[C@H](C(C)(C)C(=O)O)NC(=O)[C@H](CC3CCCCC3)NC(=O)[C@H](CCN)NC(=O)[C@@H](CC(C)C)NC(=O)[C@H](CCCN)NC(=O)[C@H](Cc3ccc(OCC(=O)O)cc3)NC(=O)[C@H](Cc3ccc(-c4ccccc4)cc3)NC(=O)[C@H](Cc3ccc(OCC(=O)O)cc3)NC2=O)c1 [Compound 2070] ({CH2CO}-[Dab]Y(Carboxymethyl)D[Phe(3-Me)]Y(Carboxymethyl)[Bip]Y(Carboxymethyl)[Orn][dL][Dab][Cha][Asp(3,3-Me2)]SC[Dab]-NH2; thioether N-14) | 0.017 µM |
| Cc1cccc(C[C@@H]2NC(=O)[C@H](CC(=O)O)NC(=O)[C@H](Cc3ccc(OCC(=O)O)cc3)NC(=O)[C@H](CCN)NC(=O)CSC[C@@H](C(=O)N[C@H](C(N)=O)C(C)(C)C(=O)O)NC(=O)[C@H](CO)NC(=O)[C@H](C(C)(C)O)NC(=O)[C@H](CC3CCCCC3)NC(=O)[C@H](CCN)NC(=O)[C@@H](CC(C)C)NC(=O)[C@H](CCCN)NC(=O)[C@H](Cc3ccc(OCC(=O)O)cc3)NC(=O)[C@H](Cc3ccc(-c4ccccc4)cc3)NC(=O)[C@H](Cc3ccc(OCC(=O)O)cc3)NC2=O)c1 [Compound 2071] ({CH2CO}-[Dab]Y(Carboxymethyl)D[Phe(3-Me)]Y(Carboxymethyl)[Bip]Y(Carboxymethyl)[Orn][dL][Dab][Cha][Val(3-OH)]SC[Asp(3,3-Me2)]-NH2; thioether N-14) | 0.148 µM |
